Assays:
[1] = test system: full thickness excisional wounds; test: Swine full thickness excisional dermal wound model; assay type: in vivo; conditions: for Mean Wound Healing (%): topical 3 mg/ml, 0.20 ml daily; for percentage of wound healing vs saline control, in words: 3 mg/ml
Experimental: In this Example, peptide compounds of the presently disclosed inventive concepts were evaluated as to their activity on the dermal wound healing process in a clinically relevant swine full thickness excisional wound model. Three different peptide formulations (Group B, Peptide 95-122 (SEQ ID NO:26); Group C, Peptide 120-146WH (SEQ ID NO:31); and Group D, Peptide 120-146QH-5RMP (SEQ ID NO:33)) were each evaluated at the same concentration (3 mg/ml). Sterile saline served as the control (Group A).
(§1) Full thickness excisional wounds were induced on the dorsum of swine (N=3) using a 1.0 cm biopsy punch. Treatments were administered (0.20 ml) to each wound (N=6 wounds per group), and the wounds were dressed with standard occlusive dressing ([…]™, 3M Corporation, St. Paul, Minn.). Treatments were reapplied daily and dressings changed. Clinical wound healing observations and wound area (2 mm) measurements were performed on days 0, 3, 5, 7, 10, and 14 post-wounding. Wound area (2 mm) data were expressed as percentage (%) of wound healing. Animals were terminated on day 14 with wounds harvested and processed for histological evaluation. […] All peptide formulation treatment groups healed faster with greater rate of closure and re-epithelialization over time, as compared to the saline control (Group A).

[2] = test system: full thickness excisional wounds; test: Histopathology of swine dermal wounds; assay type: in vivo; set-up: Inflammation, mean histopathology score / Angiogenesis, mean histopathology score / Granulation, mean histopathology score / Epithelization, mean histopathology score: scale not given here; conditions: for epidermal resurfacing and maturation vs saline control, in words: day 14 post-wounding; for Angiogenesis, mean histopathology score / Epithelization, mean histopathology score / Granulation, mean histopathology score / Inflammation, mean histopathology score: wounds harvested on day 14, 3 mg/ml
Experimental: The characteristics that were measured are required to indicate features of a well-healed wound. Inflammation should be low and re-epithelialization high.
as §1
The histology correlated with the clinical observations. […] There were minimal differences in the amount or character of granulation tissue, inflammation, and angiogenesis. All the wounds were well filled and vascularized.

[3] = test system: Pseudomonas aeruginosa ATCC 27853; test: In vitro bactericidal assay, P. aeruginosa ATCC 27853 (FIGS. 12-14); assay type: cell-based; conditions: for activity in in vitro killing assays, in words / reduction of the CFU: FIG. 14; for reduction of the CFU: peptides at 150, 75, 37.5 μg/ml; for reduction of CFU/ml: highest peptide concentration
Experimental: (§2) Each of the test peptides was used at 25, 12.5 6.25, and 3.12 μM. The gentamicin was used at 4 μg/ml. 1×10^6/ml Pseudomonas aeruginosa ATCC® 27853™ (American Type Culture Collection, Manassas, Va.) were incubated with the peptides, negative buffer control (tryptone saline), and positive control gentamicin for 180 minutes at pH 7.2. 50 μl aliquots were plated out on agar plates and incubated overnight. Colony forming units were counted after overnight incubation and CFU/ml calculated.
as §2, with “12.5,” for “12.5”, “5.5.” for “7.2.”
FIG. 14 is a comparison of bactericidal activity of CAP37 peptides 120-146WR (SEQ ID NO:30), 120-146WH (SEQ ID NO:31), 120-146QR (SEQ ID NO:28), 120-146QH (SEQ ID NO:29), 120-146QR-5RMP (SEQ ID NO:32), and 120-146QH-5RMP (SEQ ID NO:33) for Pseudomonas aeruginosa ATCC® 27853™ (American Type Culture Collection, Manassas, Va.). 1×10^6/ml Pseudomonas aeruginosa ATCC® 27853™ were incubated with the peptides at 150, 75, and 37.5 μg/ml and negative buffer control (tryptone saline) for 180 minutes at pH 5.5. 50 μl aliquots were plated out on agar plates and incubated overnight. Colony forming units were counted after overnight incubation and CFU/ml calculated.
For FIGS. 10-13, in vitro bactericidal assays were performed using a starting inoculum of 1×10^6 CFU/ml of the bacterial suspension. The CFU remaining at the end of the 60-180 minute incubation was determined, and the data was plotted as log reduction in CFU/ml.
In particular, each of the test peptides (CAP37 peptides 120-146WR, 120-146WH, and 95-122 (SEQ ID NOS:30, 31, and 26, respectively)) was used at 25, 12.5, 6.25, and 3.12 μM. Gentamicin was used at 4 μg/ml. 1×10^6/ml Acinetobacter baumannii ATCC® BAA-747™ or Pseudomonas aeruginosa ATCC® 27853™ (American Type Culture Collection, Manassas, Va.) were incubated with the peptides, negative buffer control (tryptone saline), and positive control gentamicin at pH 5.5 or 7.2. A 60 minute incubation was used for Acinetobacter baumannii ATCC® BAA-747™, while a 180 minute incubation was used for Pseudomonas aeruginosa ATCC® 27853™. 50 μl aliquots were plated out on agar plates and incubated overnight. Colony forming units were counted after overnight incubation and CFU/ml calculated.
For FIG. 14, 1×10^6/ml Pseudomonas aeruginosa ATCC® 27853™ were incubated with each of the test peptides (CAP37 peptides 120-146WR, 120-146WH, 120-146QR, 120-146QH, 120-146QR-5RMP, and 120-146QH-5RMP (SEQ ID NOS:30, 31, 28, 29, 32, and 33, respectively)) at 150, 75, and 37.5 μg/ml, or negative buffer control (tryptone saline), for 180 minutes at pH 5.5. 50 μl aliquots were plated out on agar plates and incubated overnight. Colony forming units were counted after overnight incubation and CFU/ml calculated.

[4] = pH 7.2, 180 minutes, 120-146WR/WH at 25 μM, 95-122 at 3.12-25 μM

GTRCQVAGWGSWHSGGRLSRFPRFVNV (derivative of peptide of CAP37 protein) [Peptide 120-146WH]
Mean Wound Healing (%) ([1]; Day 0): 0.0%
Mean Wound Healing (%) ([1]; Day 3): 22.1%
Mean Wound Healing (%) ([1]; Day 5): 35.9%
Mean Wound Healing (%) ([1]; Day 7): 59.7%
Mean Wound Healing (%) ([1]; Day 10): 93.5%
Mean Wound Healing (%) ([1]; Day 14): 97.5%
percentage of wound healing vs saline control, in words ([1]; days 10 and 14 post-wounding): significant (p<0.05) increase in the percentage of wound healing
epidermal resurfacing and maturation vs saline control, in words [2]: greater extent of epidermal resurfacing and maturation of the epidermis
Angiogenesis, mean histopathology score [2]: 1.7
Epithelization, mean histopathology score [2]: 3.7
Granulation, mean histopathology score [2]: 4.0
Inflammation, mean histopathology score [2]: 0.5
activity in in vitro killing assays, in words ([3]; pH 5.5, 180 minutes): strongly active
reduction of the CFU ([3]; pH 5.5, 180 minutes): 6 logs
bactericidal activity, in words [3, 4]: as effective as the standard antibiotic gentamicin
reduction of CFU/ml ([3]; pH 7.2, 180 minutes): 6 logs

GTRCQVAGWGSWRSGGRLSRFPRFVNV (derivative of peptide of Homo sapiens CAP37 protein) [Peptide 120-146WR]
bactericidal activity, in words ([3]; 120-146WR at 25 μM, gentamicin 4 μg/ml): highly active
activity in in vitro killing assays, in words ([3]; pH 5.5, 180 minutes): strongly active
reduction of the CFU ([3]; pH 5.5, 180 minutes): 6 logs
bactericidal activity, in words [3, 4]: as effective as the standard antibiotic gentamicin
reduction of CFU/ml ([3]; pH 7.2, 180 minutes): 6 logs

LDREANLTSSVTILPLPLQNATVEAGTR (listed as Homo sapiens) [Peptide 95-122]
Mean Wound Healing (%) ([1]; Day 0): 0.0%
Mean Wound Healing (%) ([1]; Day 3): 28.9%
Mean Wound Healing (%) ([1]; Day 5): 41.5%
Mean Wound Healing (%) ([1]; Day 7): 70.8%
Mean Wound Healing (%) ([1]; Day 10): 99.7%
Mean Wound Healing (%) ([1]; Day 14): 100.0%
percentage of wound healing vs saline control, in words ([1]; days 5, 7, 10, and 14): significant (p<0.05) increase in the percentage of wound healing
epidermal resurfacing and maturation vs saline control, in words [2]: greater extent of epidermal resurfacing and maturation of the epidermis
Angiogenesis, mean histopathology score [2]: 2.3
Epithelization, mean histopathology score [2]: 4.0
Granulation, mean histopathology score [2]: 4.0
Inflammation, mean histopathology score [2]: 0.5
bactericidal activity, in words ([3]; pH 5.5, 180 minutes, peptides 3.12-25 μM, gentamicin 4 μg/ml): not active
bactericidal activity, in words [3, 4]: not active

— patent US11884710B2, “Peptide compounds and methods of use in wound healing” (priority 2013, dated 2024)
